Measurements: patent US20060069132A1, “Azolecarboxamide herbicides” (priority 2004, published 2006)

Key:
velvetleaf = experiment: Test C pre-/postemergence herbicide test; assay type: in vivo, Abutilon theophrasti
Outline: (§1)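 Preemergence: seeds planted and treated with compound in non-phytotoxic solvent with surfactant; postemergence: plants at 2 to 18 cm (1- to 4-leaf stage) sprayed likewise. Kept in greenhouse 12 to 14 days, then visually rated against controls, 0 (no effect) to 100 (complete control).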

corn = experiment: Test C pre-/postemergence herbicide test; assay type: in vivo, Zea mays
Excerpt: (§2) Seeds of plant species selected from bermudagrass (Cynodon dactylon (L.) Pers.), Surinam grass (Urochloa decumbens (Staph) R. D. Webster, previously named Brachiaria decumbens Stapf), cocklebur (Xanthium strumarium L.), corn (Zea mays L.), large crabgrass (Digitaria sanguinalis (L.) Scop.), woolly cupgrass (Eriochloa villosa (Thunb.) Kunth), giant foxtail (Setaria faberi Herrm.), goosegrass (Eleusine indica (L.) Gaertn.), johnsongrass (Sorghum halepense (L.) Pers.), kochia (Kochia scoparia (L.) Schrad.), lambsquarters (Chenopodium album L.), morningglory (Ipomoea coccinea L.), eastern black nightshade (Solanum ptycanthum Dunal), yellow nutsedge (Cyperus esculentus L.), pigweed (Amaranthus retroflexus L.), common ragweed (Ambrosia elatior L.), soybean (Glycine max (L.) Merr.), common (oilseed) sunflower (Helianthus annuus L.) and velvetleaf (Abutilon theophrasti Medik.) were planted and treated preemergence with test chemicals formulated in a non-phytotoxic solvent mixture which included a surfactant.
(§3) At the same time, plants selected from these crop and weed species and also winter barley (Hordeum vulgare L.), blackgrass (Alopecurus myosuroides Huds.), canarygrass (Phalaris minor Retz.), chickweed (Stellaria media (L.) Vill.), downy bromegrass (Bromus tectorum L.), green foxtail (Setaria viridis (L.) Beauv.), Italian ryegrass (Lolium multiflorum Lam.), wheat (Triticum aestivum L.), wild oat (Avenafatua L.) and windgrass (Apera spica-venti (L.) Beauv.) were treated with postemergence applications of some of the test chemicals formulated in the same manner. Plants ranged in height from 2 to 18 cm (1- to 4-leaf stage) for postemergence treatments. Plant species in the flooded paddy test consisted of rice (Oryza sativa), smallflower umbrella sedge (Cyperus difformis L.), ducksalad (Heteranthera limosa (Sw.) Willd.) and barnyardgrass (Echinochloa crus-galli (L.) Beauv.) grown to the 2-leaf stage for testing. Treated plants and controls were maintained in a greenhouse for 12 to 14 days, after which time all species were compared to controls and visually evaluated. Plant response ratings, summarized in Table C, are based on a scale of 0 to 100 where 0 is no effect and 100 is complete control. A dash (-) response means no test result.

bermudagrass = experiment: Test C pre-/postemergence herbicide test; assay type: in vivo, Cynodon dactylon
Outline: as §1

goosegrass = experiment: Test C pre-/postemergence herbicide test; assay type: in vivo, Eleusine indica
Outline: as §1

giant foxtail = experiment: Test C pre-/postemergence herbicide test; assay type: in vivo, Setaria faberi
Outline: as §1

morningglory = experiment: Test C pre-/postemergence herbicide test; assay type: in vivo, Ipomoea coccinea; parameters: key to Plant response rating, Morningglory: 0 = no effect, 100 = complete control; details: for Morningglory plant response rating: 500 g ai/ha
Excerpt: as §2, §3

soybean = experiment: Test C pre-/postemergence herbicide test; assay type: in vivo, Glycine max; details: for Soybean plant response rating: 500 g ai/ha
Excerpt: as §2, §3

yellow nutsedge = experiment: Test C pre-/postemergence herbicide test; assay type: in vivo, Cyperus esculentus
Excerpt: as §2, §3

woolly cupgrass = experiment: Test C pre-/postemergence herbicide test; assay type: in vivo, Eriochloa villosa
Outline: as §1

cocklebur = experiment: Test C pre-/postemergence herbicide test; assay type: in vivo, Xanthium strumarium
Excerpt: as §2, §3

kochia = experiment: Test C pre-/postemergence herbicide test; assay type: in vivo, Kochia scoparia
Outline: as §1

barnyardgrass = experiment: Test C flooded paddy test; assay type: in vivo, Echinochloa crus-galli
Outline: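 Ratings (0 = no effect, 100 = complete control) come from visual comparison with untreated plants after 12 to 14 days in the greenhouse. Treatment was postemergence at the 1- to 4-leaf stage (2–18 cm), or at the 2-leaf stage for the flooded paddy barnyardgrass.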

[1] = 125 g ai/ha, scale 0 (no effect) to 100 (complete control), visual, 12 to 14 days, preemergence
[2] = 250 g ai/ha, scale 0 to 100 (0 no effect, 100 complete control), visual, 12 to 14 days, preemergence
[3] = Postemergence, 500 g ai/ha, scale 0 to 100
[4] = Postemergence, 250 g ai/ha, scale 0 to 100, 0 no effect, 100 complete control
[5] = Preemergence, 500 g ai/ha, scale 0 to 100, 0 no effect, 100 complete control
[6] = postemergence, 62 g ai/ha, scale 0 to 100
[7] = Postemergence, 125 g ai/ha, scale 0 to 100, 0 no effect, 100 complete control
[8] = Preemergence, scale 0 to 100, 0 no effect, 100 complete control
[9] = 62 g ai/ha, preemergence, scale 0 to 100
[10] = 250 g ai/ha, scale 0-100, preemergence
[11] = 500 g ai/ha, scale 0 to 100 (0 no effect, 100 complete control), visual, 12 to 14 days, preemergence

C#CCn1nc(C(C)(C)C)cc1C(=O)Nc1cccc(C(=O)NCC)c1 [Compound 50]
Plant response rating (0 = no effect, 100 = complete control), Velvetleaf (velvetleaf; 62 g ai/ha, preemergence): 0 | Plant response rating, Velvetleaf (velvetleaf; [1]): 5 | Plant response rating, Velvetleaf (velvetleaf; [2]): 5 | Velvetleaf plant response rating (velvetleaf; [3]): 100 | Plant response rating, Velvetleaf (velvetleaf; [4]): 100 | Velvetleaf plant response rating (velvetleaf; [5]): 5 | Plant response rating, Velvetleaf (velvetleaf; [6]): 100 | Plant response rating (0 = no effect, 100 = complete control), Corn (corn; 62 g ai/ha, preemergence): 0 | Plant response rating, Corn (corn; [1]): 0 | Plant response rating, Corn (corn; [2]): 0 | Corn plant response rating (corn; [3]): 85 | Plant response rating, Corn (corn; [7]): 80 | Plant response rating, Corn (corn; [4]): 85 | Corn plant response rating (corn; [5]): 10 | Plant response rating, Corn (corn; [6]): 20 | Plant response rating (0 = no effect, 100 = complete control), Bermudagrass (bermudagrass; 62 g ai/ha, preemergence): 0 | Plant response rating, Bermudagrass (bermudagrass; [1]): 0 | Plant response rating, Bermudagrass (bermudagrass; [2]): 0 | Bermudagrass plant response rating (bermudagrass; [3]): 40 | Plant response rating, Bermudagrass (bermudagrass; [7]): 30 | Bermudagrass plant response rating (bermudagrass; Postemergence, 250 g ai/ha, scale 0 to 100): 30 | Bermudagrass plant response rating (bermudagrass; [5]): 10 | Plant response rating, Bermudagrass (bermudagrass; [6]): 0 | Plant response rating (0 = no effect, 100 = complete control), Goosegrass (goosegrass; 62 g ai/ha, preemergence): 40 | Plant response rating, Goosegrass (goosegrass; [1]): 80 | Plant response rating, Goosegrass (goosegrass; [2]): 100 | Plant response rating, Goosegrass (goosegrass; [7]): 30 | Plant response rating, Goosegrass (goosegrass; [4]): 90 | Goosegrass plant response rating (goosegrass; [5]): 100 | Plant response rating, Goosegrass (goosegrass; [6]): 30 | Plant response rating (0 = no effect, 100 = complete control), Foxtail, Giant (giant foxtail; 62 g ai/ha, preemergence): 0 | Plant response rating, Foxtail, Giant (giant foxtail; [1]): 0 | Plant response rating, Foxtail, Giant (giant foxtail; [2]): 0 | Foxtail, Giant plant response rating (giant foxtail; [3]): 0 | Plant response rating, Foxtail, Giant (giant foxtail; [7]): 0 | Plant response rating, Foxtail, Giant (giant foxtail; [4]): 0 | Foxtail, Giant plant response rating (giant foxtail; [5]): 10 | Plant response rating, Foxtail, Giant (giant foxtail; [6]): 0 | Plant response rating (0 = no effect, 100 = complete control), Morningglory (morningglory; 62 g ai/ha, preemergence): 0 | Plant response rating, Morningglory (morningglory; [1]): 0 | Plant response rating, Morningglory (morningglory; [2]): 0 | Morningglory plant response rating (morningglory; Postemergence, scale 0 to 100): 10 | Plant response rating, Morningglory (morningglory; [4]): 0 | Morningglory plant response rating (morningglory; [8]): 0 | Plant response rating, Morningglory (morningglory; [6]): 0 | Plant response rating (0 = no effect, 100 = complete control), Soybean (soybean; 62 g ai/ha, preemergence): 0 | Plant response rating, Soybean (soybean; [1]): 0 | Plant response rating, Soybean (soybean; [2]): 0 | Soybean plant response rating (soybean; Postemergence, scale 0 to 100): 100 | Plant response rating, Soybean (soybean; [4]): 100 | Soybean plant response rating (soybean; [8]): 0 | Plant response rating, Soybean (soybean; [6]): 100 | Plant response rating (0 = no effect, 100 = complete control), Nutsedge, Yellow (yellow nutsedge; 62 g ai/ha, preemergence): 0 | Plant response rating, Nutsedge, Yellow (yellow nutsedge; [1]): 10 | Plant response rating, Nutsedge, Yellow (yellow nutsedge; [2]): 40 | Nutsedge, Yellow plant response rating (yellow nutsedge; [5]): 80 | Plant response rating (0 = no effect, 100 = complete control), Cupgrass, Woolly (woolly cupgrass; 62 g ai/ha, preemergence): 0 | Plant response rating, Cupgrass, Woolly (woolly cupgrass; [1]): 10 | Plant response rating, Cupgrass, Woolly (woolly cupgrass; [2]): 30 | Cupgrass, Woolly plant response rating (woolly cupgrass; [3]): 0 | Plant response rating, Cupgrass, Woolly (woolly cupgrass; [7]): 0 | Plant response rating, Cupgrass, Woolly (woolly cupgrass; [4]): 0 | Cupgrass, Woolly plant response rating (woolly cupgrass; [5]): 70 | Plant response rating, Cupgrass, Woolly (woolly cupgrass; [6]): 0 | Plant response rating (0 = no effect, 100 = complete control), Cocklebur (cocklebur; 62 g ai/ha, preemergence): 0 | Plant response rating, Cocklebur (cocklebur; [1]): 10 | Plant response rating, Cocklebur (cocklebur; [2]): 80 | Cocklebur plant response rating (cocklebur; [3]): 10 | Plant response rating, Cocklebur (cocklebur; [7]): 10 | Plant response rating, Cocklebur (cocklebur; [4]): 10 | Cocklebur plant response rating (cocklebur; [5]): 80 | Plant response rating, Cocklebur (cocklebur; [6]): 10 | Plant response rating (0 = no effect, 100 = complete control), Kochia (kochia; 62 g ai/ha, preemergence): 30 | Plant response rating, Kochia (kochia; [1]): 85 | Plant response rating, Kochia (kochia; [2]): 100 | Kochia plant response rating (kochia; [3]): 10 | Plant response rating, Kochia (kochia; [7]): 10 | Plant response rating, Kochia (kochia; [4]): 10 | Kochia plant response rating (kochia; [5]): 100 | Plant response rating, Kochia (kochia; [6]): 0

Cc1nn(C(C)(C)C)nc1C(=O)Nc1cccc(C(=O)N2CC=CC2)c1 [Compound 393]
Plant response rating, Velvetleaf (velvetleaf; [9]): 65 | Plant response rating (0 = no effect, 100 = complete control), Velvetleaf (velvetleaf; 125 g ai/ha, preemergence): 100 | Plant response rating, Velvetleaf (velvetleaf; [10]): 100 | Plant response rating, Velvetleaf (velvetleaf; [11]): 100 | Plant response rating, Corn (corn; [9]): 55 | Plant response rating, Corn (corn; [10]): 75 | Plant response rating, Corn (corn; [11]): 100 | Plant response rating, Bermudagrass (bermudagrass; 62 g ai/ha, preemergence, scale 0 to 100, 0 no effect, 100 complete control): 60 | Plant response rating (0 = no effect, 100 = complete control), Bermudagrass (bermudagrass; 125 g ai/ha, preemergence): 100 | Plant response rating, Bermudagrass (bermudagrass; [10]): 100 | Plant response rating, Bermudagrass (bermudagrass; [11]): 100 | Plant response rating, Goosegrass (goosegrass; [9]): 85 | Plant response rating (0 = no effect, 100 = complete control), Goosegrass (goosegrass; 125 g ai/ha, preemergence): 100 | Plant response rating, Goosegrass (goosegrass; [10]): 100 | Plant response rating, Goosegrass (goosegrass; [11]): 100 | Barnyardgrass plant response rating (barnyardgrass; 62 g ai/ha, scale 0 to 100 (0 no effect, 100 complete control)): 45 | Barnyardgrass plant response rating (barnyardgrass; 125 g ai/ha, scale 0 to 100 (0 no effect, 100 complete control)): 65 | Barnyardgrass plant response rating (barnyardgrass; 250 g ai/ha, scale of 0 to 100, 0 is no effect, 100 is complete control): 75 | Plant response rating, Barnyardgrass (barnyardgrass; 500 g ai/ha, visual rating after 12 to 14 days, scale 0 to 100 (0 no effect, 100 complete control)): 95 | Plant response rating, Foxtail, Giant (giant foxtail; [9]): 70 | Plant response rating (0 = no effect, 100 = complete control), Foxtail, Giant (giant foxtail; 125 g ai/ha, preemergence): 90 | Plant response rating, Foxtail, Giant (giant foxtail; [10]): 95 | Plant response rating, Foxtail, Giant (giant foxtail; [11]): 100 | Plant response rating, Morningglory (morningglory; [9]): 60 | Plant response rating, Nutsedge, Yellow (yellow nutsedge; [10]): 50 | Plant response rating, Cupgrass, Woolly (woolly cupgrass; [9]): 30 | Plant response rating (0 = no effect, 100 = complete control), Cupgrass, Woolly (woolly cupgrass; 125 g ai/ha, preemergence): 70 | Plant response rating, Cupgrass, Woolly (woolly cupgrass; [10]): 90 | Plant response rating, Cupgrass, Woolly (woolly cupgrass; [11]): 100 | Plant response rating, Cocklebur (cocklebur; [9]): 0 | Plant response rating (0 = no effect, 100 = complete control), Cocklebur (cocklebur; 125 g ai/ha, preemergence): 100 | Plant response rating, Cocklebur (cocklebur; [10]): 100 | Plant response rating, Cocklebur (cocklebur; [11]): 100 | Plant response rating, Kochia (kochia; [9]): 0 | Plant response rating (0 = no effect, 100 = complete control), Kochia (kochia; 125 g ai/ha, preemergence): 100 | Plant response rating, Kochia (kochia; [10]): 100 | Plant response rating, Kochia (kochia; [11]): 100
